Key:
[1] = Inhibition of Streptococcus mutans OMZ65 sortase A lacking N-terminal membrane anchor domain (1 to 40 amino acids) expressed in Escherichia coli TOP10 using Dabcyl-QALPETGEE-Edans substrate incubated for 1 hr by fluorescence spectrophotometry
Streptococcus mutans [2] = experiment: Toxicity against Streptococcus mutans assessed as inhibition of microbial growth; assay type: organism-based; conditions: in vitro
Streptococcus mutans [3] = experiment: Inhibition of sortase A in Streptococcus mutans NG8 assessed as reduction in saliva-induced bacterial aggregation at 58.6 to 234.4 uM by spectrophotometry

| IC50 [1] [µM] | inhibition (Streptococcus mutans [3]) | Compound | MIC (Streptococcus mutans [2]) [µM] |
| --- | --- | --- | --- |
| 62.1 | – | COc1cc(-c2oc3cc(O)cc(O)c3c(=O)c2O[C@@H]2O[C@H](CO[C@@H]3O[C@@H](C)[C@H](O)[C@@H](O)[C@H]3O)[C@@H](O)[C@H](O)[C@H]2O)ccc1O [NARCISSIN] | > 320.2 |
| 58.6 | Dose-dependent effect | Cc1occc(=O)c1O[C@@H]1O[C@H](COC(=O)CC(C)(O)CC(=O)O)[C@@H](OC(=O)/C=C\c2ccc(O)cc2)[C@H](O)[C@H]1O (some centres not stated) | > 345.9 |
| 60.7 | – | C[C@@H]1O[C@@H](OC[C@H]2O[C@@H](Oc3c(-c4ccc(O)cc4)oc4cc(O)cc(O)c4c3=O)[C@H](O)[C@@H](O)[C@@H]2O)[C@H](O)[C@H](O)[C@H]1O [NICOTIFLOROSIDE] | > 336.4 |

The next lines start with the compound.

| Compound | IC50 [1] [µM] | inhibition (Streptococcus mutans [3]) | MIC (Streptococcus mutans [2]) [µM] |
| --- | --- | --- | --- |
| Para-Hydroxymercuribenzoic acid | 112 | – | – |
| Cc1occc(=O)c1O[C@@H]1O[C@H](COC(=O)CC(C)(O)CC(=O)O)[C@@H](OC(=O)/C=C/c2ccc(O)cc2)[C@H](O)[C@H]1O (some centres not stated) | 94.3 | – | > 345.9 |
| COc1cc(/C=C/C(=O)CC(=O)/C=C/c2ccc(O)c(OC)c2)ccc1O [CURCUMIN] | 91.5 | – | > 542.9 |

— ChEMBL document CHEMBL3400100, “Streptococcus mutans sortase A inhibitory metabolites from the flowers of Sophora japonica” (Bioorg Med Chem Lett, 2015)
